Test results from publication PMC3849131, “^18 F-click labeling and preclinical evaluation of a new ^18 F-folate for PET imaging” (EJNMMI Research, 2013).

Experiments:
folate receptor = molecular target: T1, folate receptor (Homo sapiens, UniProt P15328); assay: Displacement assay with [^3H]folic acid on FR-positive human KB cells; type: binding; settings: Cheng-Prusoff equation, assuming Kd of [^3H]folic acid 1 nM
T1 construct: using [^3H]folic acid and human KB cells in cell suspension; endogenous in cells; host or cells: human KB cells
T1 sequence (P15328 25-257): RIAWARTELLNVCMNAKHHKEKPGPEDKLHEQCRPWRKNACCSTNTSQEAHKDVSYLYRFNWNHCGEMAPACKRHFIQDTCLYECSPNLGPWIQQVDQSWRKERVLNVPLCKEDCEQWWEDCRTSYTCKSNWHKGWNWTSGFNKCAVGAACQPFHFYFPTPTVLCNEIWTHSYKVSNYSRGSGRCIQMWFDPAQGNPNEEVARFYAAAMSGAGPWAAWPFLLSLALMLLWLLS
Description: FR-positive human KB cells were kept under folate-deficient conditions to adjust the folate concentration levels to that of the human serum.
Figure 1 Displacement assay. […] Experiments were conducted in triplicate (n = 3).

[1] = In vitro metabolite/stability study in fetal calf serum; type: in vitro ADME; settings: FCS, 37°C, 15, 30, 60 and 90 min
Description: A solution of [^18 F]12 (50 μL, approximately 5 MBq) was incubated with 500 μL of fetal calf serum (FCS) at 37°C and the mixture shaken at 900 rpm. The time points were set between 0 and 90 min using 500 μL of FCS and 50 μL of the radiotracer for each time point. Plasma proteins were precipitated by addition of cold acetonitrile (300 μL), followed by centrifugation (10,000 rpm, 10 min). An aliquot of each time point (15, 30, 60, and 90 min, 100 μL) was injected into the analytical radio-HPLC system for analytics.
The stability of the new radiotracer, [^18 F]12, was evaluated in the presence of FCS. For this purpose, [^18 F]12 was added to FCS and incubated at 37°C. At certain time points (15, 30, 60, and 90 min), aliquots were extracted and proteins removed by precipitation. The integrity of the radiotracer was determined by analytical radio-HPLC.

KB tumor-bearing mice = assay: In vivo μPET imaging of KB tumor-bearing mice; settings: scan 60 to 90 min p.i., approximately 13 MBq
Description: All animal experiments were approved by the local veterinary department and complied with Swiss and local laws on animal protection. Female CD-1 nude mice (Charles River, Sulzfeld, Germany) were fed with a folate-deficient rodent diet (Harlan Laboratories, Indianapolis, IN, USA). After an acclimatization period of 5 to 7 days, human KB tumor cells (5 × 10^6 cells in 0.1 mL sterile phosphate-buffered saline (PBS)) were inoculated subcutaneously on both shoulders of each mouse. Twelve days later, the animals were intravenously injected with [^18 F]12 (approximately 5 MBq, 100 μL). […] Animals were euthanized at the indicated time points, and selected organs and tissues were collected, weighed, and measured in a γ-counter. The incorporated radioactivity was expressed as percentage injected dose per gram (%ID/g) of tissue. PET/computed tomography (CT) experiments were performed with a dedicated small-animal PET/CT scanner (eXplore Vista PET/CT, Sedecal, Algete, Spain/GE Healthcare). Animals were intravenously injected with [^18 F]12 (approximately 13 MBq, 100 μL). For scanning, mice were anesthetized with isoflurane in an air/oxygen mixture. The PET scans were acquired from 60 to 90 min post-injection (p.i.) followed by a CT. After acquisition, PET data were reconstructed in user-defined time frames, and the fused datasets of PET and CT were analyzed with PMOD software (version 3.4). […]

## 16-(4-(((2-amino-4-oxo-3,4-dihydropteridin-6-yl)methyl)amino)benzamido)-1-(4-(2-(2-(2-[^18 F]fluoroethoxy)ethoxy)ethoxy)-1H-1,2,3-triazol-1-yl)-13-oxo-3,6,9-trioxa-12-azaheptadecan-17-oic acid [[^18 F]12]
Folate receptor
  Ki: 1.6 nM
[1]
  stability in fetal calf serum (radio-HPLC): No degradation or defluorination
KB tumor-bearing mice
  tumor visualization in μPET: facilitated visualization of FR-positive tumors on the maximum intensity projection
